Results reported in patent publication US20230039219A1, “Improved Cell-Permeable Nuclear Import Inhibitor Synthetic Peptide for Inhibition of Cytokine Storm or Inflammatory Disease and Use Thereof” (priority 2020, published 2023).
Bridge positions count the residues as written; N and C are the ends. Ends that are not written are not given here. Peptide text beside a SMILES is read from it.

Tests used:
[1] = test system: LPS/D-Gal acute liver injury model; assay: LPS/D-galactosamine-induced acute liver injury model; details: LPS/D-Gal challenge; FIG. 1, 2, 4
[2] = parameters: species or system C57BL/6 mice; details: mouse, in vivo, iv
Protocol: To evaluate the pharmacokinetics of iCP-NI in the lungs, 6-8 weeks old C57BL/6 mice were intravenously administered with 100 mg/kg of FITC-conjugated iCP-NI. Subsequently, mice were sacrificed at various time points and lung tissues were obtained for pharmacokinetic analysis. Also, other tissues (brain, heart, liver, spleen, kidney, small/large intestine and pancreas) were collected for distribution of iCP-NI analysis. Representative lung tissue specimens were perfusion-fixed with 4% paraformaldehyde (PFA; BIOSESANG, Cat No. PC2031-100-00) and incubated in 30% sucrose solution overnight at 4° C. Next, specimens were embedded in optimal cutting temperature (OCT) compound (Leica Biosystems, Cat No. 3801480) and cryo-sectioned to a 10 μm thickness onto microscope glass slide. The cryo-sectioned samples were washed thoroughly with PBS and incubated with ammonium chloride (NH4Cl, Sigma-Aldrich, Cat No. A9434) solution for 20 minutes at room temperature (RT). The samples were mounted with DAPI-containing mounting solution (Invitrogen, Cat No. 00-4959-52) and visualized by fluorescence microscopy using a confocal laser scanning microscope system (Leica SP8) and the images were processed with Leica LAS X software).

1NLS: linear nuclear localization sequence from NF-κB1 (p50); Table 1 prints VQRKRQKLMP (SEQ ID NO. 8) (NLS) [Structure 1NLS]
effect on survival, comparison in words [1]: not enhanced

CC[C@H](C)[C@H](N)C(=O)N[C@@H](C)C(=O)N[C@@H](C)C(=O)N[C@H](C(=O)N[C@@H](CC(C)C)C(=O)N[C@@H](C)C(=O)N[C@@H](C)C(=O)N1CCC[C@H]1C(=O)N[C@@H](C)C(=O)N[C@@H](CC(C)C)C(=O)N[C@H](C(=O)N1CCC[C@H]1C(=O)N[C@H]1CSSC[C@@H](C(=O)O)NC(=O)[C@@H]2CCCN2C(=O)[C@H](CCSC)NC(=O)[C@H](CC(C)C)NC(=O)[C@H](CCCCN)NC(=O)[C@H](CCC(N)=O)NC(=O)[C@H](CCCNC(=N)N)NC(=O)[C@H](CCCCN)NC(=O)[C@H](CCCNC(=N)N)NC(=O)[C@H](CCC(N)=O)NC(=O)[C@H](C(C)C)NC1=O)C(C)C)C(C)C [iCP-NI] (H-IAAVLAAPALVPCVQRKRQKLMPC-OH; disulfide 13-24; N-terminus and C-terminus assumed)
time high levels remained in lung tissue [2]: ≥ 8 h

cNLS: circular NLS CVQRKRQKLMPC (SEQ ID NO. 1), no aMTD (also: cyclised, mode not given here)
effect on survival, comparison in words [1]: not enhanced
